Laboratory results reported in US20250188044A1 (HARBIN MEDISAN PHARMACEUTICAL CO., LTD., priority 2021, published 2025).
Read-outs that look alike come from different tables or passages of the source.

How the values were obtained:
PPARα = molecular target: T1, PPARα (Homo sapiens, UniProt Q07869); experiment: Gal4-PPARα(LBD) reporter gene agonistic activity assay in Cos-7 cells; assay type: cell-based; details: for EC50: Cos-7 cells, Gal4-PPARα(LBD) reporter, 16 h, 100% = GW7647 10 nM; for agonistic activity for PPARα (EC50 level, in words): Cos-7 reporter assay
T1 construct: hPPARα (279aa-580aa); expressed in transfected cells; host or cells: Cos-7
T1 sequence (Q07869 167-468 limits assumed): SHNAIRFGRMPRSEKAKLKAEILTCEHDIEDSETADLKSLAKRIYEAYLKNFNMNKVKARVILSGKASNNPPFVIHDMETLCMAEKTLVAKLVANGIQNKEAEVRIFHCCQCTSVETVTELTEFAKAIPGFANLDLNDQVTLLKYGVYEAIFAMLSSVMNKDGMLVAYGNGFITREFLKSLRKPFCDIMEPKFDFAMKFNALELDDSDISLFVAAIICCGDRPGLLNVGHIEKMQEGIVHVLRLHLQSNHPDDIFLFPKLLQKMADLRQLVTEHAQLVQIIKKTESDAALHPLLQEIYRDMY
Protocol: (§1) Cos-7 cells (African green monkey kidney fibroblasts, commonly used tool cells) were cultured in a 10 cm cell culture dish in a DMEM complete medium containing 10% fetal bovine serum. When the cells grew to a density of about 70%, the medium was replaced with a fresh medium for later transfection. […] The plasmid working solution was then added to the cell culture dish for cell transfection. […] Test compounds were prepared into appropriate test concentrations with a complete medium and then added to the 96-well plate. […] 10 μL of lysate was pipetted into a white opaque 384-well plate, and then 10 μL of reporter gene assay buffer (purchased from Shanghai Beyotime Biological Tech. Co., Ltd.) was added. The bioluminescence was detected by using a multimode microplate reader, and the corresponding half maximal effective concentration (EC50) value was calculated according to the detection value.

PPARδ = molecular target: T2, PPARδ (Homo sapiens, UniProt Q03181); experiment: Gal4-PPARδ(LBD) reporter gene agonistic activity assay in Cos-7 cells; assay type: cell-based; details: for agonistic activity for PPARδ (EC50 level, in words): Cos-7 reporter assay
T2 construct: expressed in transfected cells; host or cells: Cos-7
T2 sequence (Q03181 139-441 limits assumed): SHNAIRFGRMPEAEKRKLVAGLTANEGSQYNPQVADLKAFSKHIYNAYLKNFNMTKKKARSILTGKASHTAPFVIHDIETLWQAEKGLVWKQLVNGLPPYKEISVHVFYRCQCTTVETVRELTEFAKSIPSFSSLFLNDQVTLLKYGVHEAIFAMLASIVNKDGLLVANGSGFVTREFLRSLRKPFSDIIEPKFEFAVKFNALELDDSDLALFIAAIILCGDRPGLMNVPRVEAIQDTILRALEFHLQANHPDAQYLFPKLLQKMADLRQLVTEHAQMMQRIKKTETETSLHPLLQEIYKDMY
Protocol: as §1

PPARγ = molecular target: T3, PPARγ (Homo sapiens, UniProt P37231); experiment: Gal4-PPARγ(LBD) reporter gene agonistic activity assay in Cos-7 cells; assay type: cell-based; details: Cos-7 cells, Gal4-PPARγ(LBD) reporter, 16 h; 100% = Rosiglitazone 1 μM
T3 construct: hPPARγ (281aa-554aa); expressed in transfected cells; host or cells: Cos-7
T3 sequence (P37231 232-505 limits assumed): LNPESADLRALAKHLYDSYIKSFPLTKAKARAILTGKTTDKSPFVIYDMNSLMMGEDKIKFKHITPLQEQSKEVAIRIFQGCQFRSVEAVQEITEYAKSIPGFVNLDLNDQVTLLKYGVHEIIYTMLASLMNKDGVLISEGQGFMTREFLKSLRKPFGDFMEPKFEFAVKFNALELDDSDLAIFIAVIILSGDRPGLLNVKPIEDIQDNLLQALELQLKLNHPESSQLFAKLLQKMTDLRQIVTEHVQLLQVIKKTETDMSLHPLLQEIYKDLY
Protocol: as §1

[1] = Metabolic stability in human liver microsomes; assay type: in vitro ADME; details: for half-life: human liver microsomes 0.75 mg/mL, NADPH, 0-60 min
Protocol: A 500 μM solution of the compound in acetonitrile was prepared and diluted to obtain a 1.5 μM drug working solution with a 0.1 M potassium phosphate solution. The drug working solution was co-incubated with a human liver microsome working solution at a final concentration of 0.75 mg/mL and an NADPH solution (final concentration: 550 μM), and the incubation was terminated by adding an acetonitrile solution at 0 min, 15 min, 30 min, 45 min, and 60 min. The residual amount of the compound that remained in the system at each time point was detected by using LC/MS. The absolute value k of the slope was determined by plotting the natural logarithm of the percentage of the residual amount of the compound with the time, and the calculation was performed according to the formula: T1/2 (half-life)=ln2/k=0.693/k.

Row | SMILES | EC50 (PPARα) | agonistic activity for PPARα (EC50 level, in words) (PPARα) | EC50 (PPARδ) | agonistic activity for PPARδ (EC50 level, in words) (PPARδ) | EC50 (PPARγ) | metabolic stability in human liver microsomes (in words) [1] | half-life [1] | EC50 (PPARδ; Cos-7 cells, Gal4-PPARδ(LBD) reporter, 16 h, 100% = GW501516 10 nM)
1 | Cc1cc(Cn2ncn(-c3ccc(C(F)(F)F)cc3)c2=O)cc(Cl)c1OC(C)(C)C(=O)O [Compound 143, 2-(2-Chloro-6-methyl-4-((5-oxo-4-(4-(trifluoromethyl)phenyl)-4,5-dihydro-1H-1,2,4-triazol-1-yl)methyl)phenoxy)-2-methylpropionic acid] | 9 nM | at nanomolar levels | 15 nM | at nanomolar levels | 1800 nM | very good metabolic stability in human liver microsomes | > 2 h | 
2 | CCc1ccc(-n2cnn(Cc3cc(C)c(OC(C)(C)C(=O)O)c(C)c3)c2=O)cc1 [Compound 131, 2-(4-((4-(4-Ethylphenyl)-5-oxo-4,5-dihydro-1H-1,2,4-triazol-1-yl)methyl)-2,6-dimethylphenoxy)-2-methylpropionic acid] | 14 nM | at nanomolar levels |  | at nanomolar levels | 1180 nM | very good metabolic stability in human liver microsomes | > 2 h | 67 nM
3 | Cc1cc(Cn2ncn(-c3ccc(Br)cc3)c2=O)cc(C)c1OC(C)(C)C(=O)O [Compound 55, 2-(4-((4-(4-Bromophenyl)-5-oxo-4,5-dihydro-1H-1,2,4-triazol-1-yl)methyl)-2,6-dimethylphenoxy)-2-methylpropionic acid] |  |  | 22 nM | at nanomolar levels | 1780 nM | very good metabolic stability in human liver microsomes | > 2 h | 
4 | Cc1cc(SCn2ncn(-c3ccc(C(F)(F)F)cc3)c2=O)ccc1OCC(=O)O [Compound 16, 2-(2-Methyl-4-(((5-oxo-4-(4-(trifluoromethyl)phenyl)-4,5-dihydro-1H-1,2,4-triazol-1-yl)methyl)thio)phenoxy)acetic acid] |  |  |  |  |  | very good metabolic stability in human liver microsomes | > 2 h | 
5 | CC(C)(Oc1c(Cl)cc(Cn2ncn(-c3ccc(C(F)(F)F)cc3)c2=O)cc1Cl)C(=O)O [Compound 129, 2-(2,6-Dichloro-4-((5-oxo-4-(4-(trifluoromethyl)phenyl)-4,5-dihydro-1H-1,2,4-triazol-1-yl)methyl)phenoxy)-2-methylpropionic acid] | 23 nM | at nanomolar levels |  |  | 4910 nM | very good metabolic stability in human liver microsomes | > 2 h | 
6 | Cc1cc(Cn2ncn(-c3ccc(C(F)(F)F)cc3)c2=O)cc(C(F)(F)F)c1OC(C)(C)C(=O)O [Compound 165, 2-Methyl-2-(2-methyl-4-((5-oxo-4-(4-(trifluoromethyl)phenyl)-4,5-dihydro-1H-1,2,4-triazol-1-yl)methyl)-6-(trifluoromethyl)phenoxy)propionic acid] |  |  | 1 nM | at nanomolar levels | 812 nM | very good metabolic stability in human liver microsomes | > 2 h | 
